We go through two molecules from patent publication US6169104A, “Di-aryl ethers and their derivatives as anti-cancer agents” (Large Scale Biology Corporation, priority 1998, dated 2001).

The subject of data set [1] is angiogenesis induced by hFGF-B in the CAM. As to the kind of experiment: Chick chorioallantoic membrane (CAM) assay, 14C-proline incorporation into collagenous protein. In kind it is in vivo, chick embryo. The note with it: for effect in the CAM assay: summary of the two experiments. The procedure: BTO-964 [methyl 3,5-diiodo-4(4'-methoxyphenoxy) benzaldehyde], and BTO-967 [methyl 3,5-diiodo-4(4'-methoxyphenoxy)-thiobenzoate] were tested in the CAm assay. The endpoint of the CAM assay was a quantiative determination of basement membrane biosynthesis by measuring the incorporation of ^14 C-proline into Type IV collagenous protein.
The CAM assay involves the development of live chick embryos in Petri dishes under special sterile conditions. Therefore, only limited numbers of embryos can be used for evaluation of compounds in a single experiment. BTO-964 and BTO-967 was tested in separate assays. A known angiogenesis inhibitor, 2-methoxyestradiol (2-ME), was used as the positive control, and human fibroblast growth factor (hFGF) was used to induce angiogenesis in the CAM.
For testing, a minimum amount of acetone-methanol (1:1) was added to the test compounds for sterilization. The acetone-methanol mixture was then evaporated to dryness in a sterile hood. The compounds were dissolved in dimethyl sulfoxide (DMSO) first and then diluted with saline containing methylcellulose. The final concentrations were 2% DMSO and 0.5% methylcellulose. all test solutions were added to each CAM in […] aliquots.
Fresh fertile eggs were incubated for three days in a standard egg incubator. On Day 3, eggs were cracked under sterile conditions and embryos were placed in 20×100 mm plastic Petri dishes and cultivated at 37° C. in an embryo incubator with a water reservoir on the bottom shelf. Air was continuously bubbled into the water reservoir by using a small pump so that the humidity in the incubator was kept constant. Observations were made daily to ensure that all embryos were healthy. Dead or unhealthy embryos were removed from the incubator immediately to avoid contamination. On Day 9, a sterile silicone ring cup was placed on each CAM and 0.5 mCi of ^14 C-proline with or without the test compound plus 2.5 ng of hFGF dissolved in saline containing 0.5% methylcellulose was delivered into each ring cup in a sterile hood. 2-ME was tested in parallel to serve as a reference compound. After addition of test materials, the embryos were returned to the incubator and cultivation continued. On Day 12, all embryos were transferred to a cold room at 4-10° C.
Using the procedure outlined in Maragoudakis, et al., (1989) J. Pharm. Exp. Ther. 251:679-682, the embryos were placed on ice and a piece of CAM 10 mm in diameter was cut off under each ring cup and placed in a separate tube. To each tube was added 1.0 ml of phosphate-buffered saline (PBS, pH 7.3) containing 0.11 mg cycloheximide and 0.17 mg dipyridyl. The tubes were placed in a boiling water bath for 10 min and then cooled to room temperature. The PBS in each tube was discarded after centrifugation at 3000×G for 10 min. The CAM residue was washed once with 3 ml of 15% TCA and then three times with 3 ml of 5% TCA. Centrifugation was carried out as described above between each washing. At this point all non-protein bound radioactivity was removed, and the CAM containing the newly synthesized ^14 C-collagenous protein was suspended in 0.9 ml of 0.1 N NaOH and 1.1 ml of HEPES buffer at pH 7.4. The pH of the sample was neutralized with 0.8 N HCl, using phenol red as indicator.
To digest the ^14 C-collagenous protein, 7.5 units of collagenase and 500 nmol of calcium chloride in […] of HEPES buffer was added to the above samples, and mixtures were incubated at 37° C. for 4 h. The reaction was stopped by adding 1.0 ml of 20% TCA containing 5 mg of tannic acid into each tube. After vortex mixing, the samples were centrifuged at 3000×G for 10 min. An aliquot of the clear supernatant was taken for scintillation counting to quantitate the radiolabeled tripeptides corresponding to basement membrane collagen and other collagenous materials synthesized by the CAM from ^14 C-proline. The CAM pellets in each tube were solubilized in 0.5 ml of 1.0 N NaOH by boiling in a water bath for 5 min. […]

The test system of data set [2] is Human leukemia (HL60) cells. Put plainly: In vitro metabolism in human leukemia cells with and without rat liver S9. The note with it: for effect of metabolism by S9 on activity: 4 hr incubation with vs without rat liver S9, cells counted 3 days later (FIG. 2). Type of data set: cell-based. The procedure:
FIG. 2 illustrates the in vitro metabolism of BTO-956, 964, 966, and 967 in human leukemia cells. In this experiments, human leukemia cells (HL60) were incubated for 4 hours in the presence of BTO-956, BTO-964, BTO-966 or BTO-967, with (closed symbols) and without (open symbols) rat liver microsome fraction S9. Following the 4 hr exposure to drug and S9, the cells were rinsed and replated at a density of 2×10^5 cells per ml, and counted 3 days later.
To test for either of these possibilities, the compounds, i.e., BTO-956, BTO-964, BTO-966 and BTO-967, were incubated with a microsomal enzyme fraction, referred to as S9.
Human leukemia (HL60) cells were used to evaluate drug metabolism. Exposure to the test article was performed in the presence and absence of S9, prepared from the liver of adult male rats given a single intraperitoneal injection of Arachlor 1254 (500 mg/kg). The S9 consisted of the 9000×G supernatant of liver homogenized in 0.25 M sucrose-100 mM phosphate buffer (pH 7.4) (Molecular Toxicology, Inc.). Cofactors were 1 mM NADP and 5 mM sodium isocitrate. On the day of exposure, cultures of cells, with or without the metabolism mixture, were incubated for 4 hours in RPMI containing 5% FBS and graded doses of BTO956, 964, 966, or 967. The test agents were prepared in serial dilutions from 10 mM stock solutions in DMSO yielding a dose range 100 μM, 50 μM, 25 μM, 10 μM and 5 μM concentrations and a final DMSO concentration of 1%. In each case, cells were maintained at 37° C. under 5 percent CO2 in air. The experiments were conducted in 6-well tissue culture plates (Falcon) with an initial seeding density of 2×10^6 cells per well in 2 ml aliquots. The test compounds were added immediately to the medium in duplicate cultures. Treatment solution was removed by a series of low-speed centrifugations to pellet the cells, followed by removal of the supernatant and resuspension of cells in fresh RPMI containing 10% FBS.

Broadly, the % Inhibition is the percentage by which the read-out fell short of the control. High values mean strong suppression, low ones little suppression. In the case of `COC(=S)c1cc(I)c(Oc2ccc(OC)cc2)c(I)c1` [BTO-967, methyl 3,5-diiodo-4-(4'-methoxyphenoxy)thiobenzoate], the “% Inhibition” value in data set [1] (8.3 μg/CAM, BTO-967 experiment) is listed as 13%; in data set [1] (25 μg/CAM, BTO-967 experiment), 3%; in data set [1] (75 μg/CAM, BTO-967 experiment) it was 11%. For the same molecule, the “14C-Proline Incorporated into Collagenous Protein (cpm/mg protein) (mean ± S.E.)” value in data set [1] (8.3 μg/CAM, BTO-967 experiment, control 6300 ± 696) came out at 5222 ± 692 cpm/mg_protein; in data set [1] (25 μg/CAM, BTO-967 experiment, control 6300 ± 696), 6165 ± 1288 cpm/mg_protein; in data set [1] (75 μg/CAM, BTO-967 experiment, control 6300 ± 696), 5581 ± 1182 cpm/mg_protein. For the same molecule, in data set [1], the “effect in the CAM assay” value is recorded as “antiangiogenic effect”. Besides, the “effect of metabolism by S9 on activity” value in data set [2] is “activated to more cytotoxic products”.

For `COc1ccc(Oc2c(I)cc(C=O)cc2I)cc1` [BTO-964, 3,5-Diiodo-4-(4'-methoxyphenoxy)benzadehyde], the “% Inhibition” value in data set [1] (8.3 μg/CAM, BTO-964 experiment) is recorded as 15%; in data set [1] (25 μg/CAM, BTO-964 experiment), 27%; in data set [1] (75 μg/CAM, BTO-964 experiment) it was 10%. The “14C-Proline Incorporated into Collagenous Protein (cpm/mg protein) (mean ± S.E.)” value is given as 9526 ± 1492 cpm/mg_protein in data set [1] (8.3 μg/CAM, BTO-964 experiment, control 11200 ± 829); 8121 ± 1096 cpm/mg_protein in data set [1] (25 μg/CAM, BTO-964 experiment, control 11200 ± 829); 10076 ± 928 cpm/mg_protein in data set [1] (75 μg/CAM, BTO-964 experiment, control 11200 ± 829). In data set [1], the “effect in the CAM assay” value was “antiangiogenic effect”. In addition, the “toxicity to HL60 cells” value in data set [2] (4 hr exposure (FIG. 2)) is “more toxic to HL60 cells than is BTO-956”. The “effect of metabolism by S9 on activity” value in data set [2] is given as “more resistant to metabolic degradation”.
